Laboratory results: patent US4238491A (priority 1977, dated 1980)
Where two headings read alike, the source gives them in different places.

What was measured:
central nervous system [1] = experiment: Behavior-pharmacological studies, central nervous system depressing effect; design: species or system mouse (dd-strain); settings: mouse, in vivo
Text: Effects on central nervous system were studied as follows: […]

[2] = Effect on body temperature; assay type: in vivo, mouse (dd-strain); settings: 25 mg/kg oral
motorability = experiment: Effect on motorability (rotating bar); assay type: in vivo, mouse (dd-strain); settings: 25 mg/kg oral; for Number of Animals that fell: 10 examined
Experimental: 25 mg/kg of MR were administered to 10 mice per one group. The mice were put on a wooden bar of 2 cm diameter which rotated at 10 r.p.m., and the number of mice which fell down from the bar was counted.

blood pressure of SHR = experiment: Antihypertensive effect by single oral administration, SHR, modified tail-cuff method; assay type: in vivo, rat (spontaneously hypertensive rats
Text: The effect was examined through both direct and modified tail-cuff methods using male SHRs aged 25 to 30 weeks and weighing about 300 g.

[3] = test system: blood pressure of anesthesized dogs; experiment: Effect on blood pressure of anesthesized dogs; assay type: in vivo, dog (mongrel); settings: for average rate of blood pressure decrease: within 6 hours
Experimental: Changes in blood pressure were measured for 6 hours after the administration with a multi-purpose polygraph RM-85 made by NIHON KODEN.
The observed effect was a blood pressure decrease immediately after administration which came up nearly to plateau 2 hours after for 1 mg/kg, and 3 hours after for 3 mg/kg and 9 mg/kg, and in all cases remained on the plateau for 6 hours after that. The DB20 value obtained from the dose-response curve of FIG. 6 was 2 mg/kg.

rats [4] = test system: rats
Experimental: The rate were bred in individual cages under the following conditions: temperature, 23°±2° C.; relative humidity, 55±5%; free taking of solid food (CE-2, CLEA Japan, Inc.) and tap water.
Volume of the medicine solution for one administration was dicided to be 1 ml per 100 g of weight, and the dose was administered once a day, 6 times a week over 5 weeks. The control group received the same volume of 0.2% carboxymethyl cellulose solution.

rats [5] = experiment: Sub-acute toxicity: histopathological examination; assay type: in vivo, rat (SD (SPF)); settings: for Adrenal Hypertrophy: 5 rats
Text: Rats were sacrificed under anesthesia with ether.
Five samples were randomly selected from each group, and paraffin-sectionedpreparations of the organs were made by a routine method. The preparations were stained with hematoxyline-eosin stain and Luxol-fast blue (central nervous system only) and examined histopathologically.

central nervous system [6] = settings: in vivo; cited from earlier work
Solubility = assay type: physicochemical

COC(=O)[C@H]1[C@H]2C[C@@H]3c4[nH]c5cc(OC)ccc5c4CCN3C[C@H]2C[C@@H](O)[C@@H]1OC [MR, methylreserpate]
central nervous system depressing effect compared with RSP (central nervous system [1]): weaker than that of RSP | body temperature (rectal) ([2]; 1 hour after): 36.6±0.2 °C | body temperature (rectal) ([2]; 2 hours after): 36.2± 0.2 °C | body temperature (rectal) ([2]; 3 hours after): 35.6±0.1 °C | effect on body temperature ([2]; 3 hours after): a slight decrease in the temperature | Number of Animals that fell (motorability; 1 hour after): 0 Number of Animals | Number of Animals that fell (motorability; 2 hours after): 2 Number of Animals | effect on motorability (motorability; 3 hours after): slight suppression of motorability | Number of Animals that fell (motorability; 3 hours after): 4 Number of Animals | maximum rate of blood pressure decrease (blood pressure of SHR; 6.25 mg/kg oral): 31.7% | time to reach original blood pressure level (blood pressure of SHR; 6.25 mg/kg oral): 48 h | time to reach original blood pressure level (blood pressure of SHR; 25 mg/kg oral): 72 h | maximum rate of blood pressure decrease (blood pressure of SHR; 25.0 mg/kg oral): 42.5% | time from which blood pressure gradually returned (blood pressure of SHR; after plateau, 6.25, 12.5 and 25 mg/kg oral): about 12 hours | time to plateau ([3]; 1 mg/kg intravenous): 2 h | time to plateau ([3]; 3 mg/kg intravenous): 3 h | average rate of blood pressure decrease ([3]; 3 mg/kg intravenous): 22.3% | time to plateau ([3]; 9 mg/kg intravenous): 3 h | average rate of blood pressure decrease ([3]; 9 mg/kg intravenous): 35.1% | duration of plateau ([3]; 1, 3 and 9 mg/kg intravenous): 6 h | ED (DB20) ([3]; Canis lupus familiaris, 6 h, intravenous, from dose-response curve of FIG. 6): 2 mg/kg | Eosino. (rats [4]; 25.0 mg/kg, day 10): 1.5±0.3% | Lymph. (rats [4]; 25.0 mg/kg, day 10): 81.8±2.0% | Mono. (rats [4]; 25.0 mg/kg, day 10): 2.1±0.4% | Neutro. (rats [4]; 25.0 mg/kg, day 10): 14.6±1.6% | Platelet (rats [4]; 25.0 mg/kg, day 10): 853±32.6 ×10^3 /mm^3 | Eosino. (rats [4]; 25.0 mg/kg, day 20): 1.8±0.4% | Lymph. (rats [4]; 25.0 mg/kg, day 20): 74.8±2.1% | Mono. (rats [4]; 25.0 mg/kg, day 20): 1.2±0.3% | Neutro. (rats [4]; 25.0 mg/kg, day 20): 22.8±2.2% | Eosino. (rats [4]; 25.0 mg/kg, day 30): 1.4±0.6% | Lymph. (rats [4]; 25.0 mg/kg, day 30): 78.0±2.0% | Mono. (rats [4]; 25.0 mg/kg, day 30): 1.5±0.5% | Neutro. (rats [4]; 25.0 mg/kg, day 30): 19.2±1.9% | Platelet (rats [4]; 25.0 mg/kg, day 30): 658±26.8 ×10^3 /mm^3 | Eosino. (rats [4]; 50.0 mg/kg, day 10): 1.8±0.4% | Lymph. (rats [4]; 50.0 mg/kg, day 10): 82.3±1.1% | Mono. (rats [4]; 50.0 mg/kg, day 10): 2.4±0.3% | Neutro. (rats [4]; 50.0 mg/kg, day 10): 13.5±0.8% | Platelet (rats [4]; 50.0 mg/kg, day 10): 861±33.5 ×10^3 /mm^3 | Eosino. (rats [4]; 50.0 mg/kg, day 20): 1.3±0.4% | Lymph. (rats [4]; 50.0 mg/kg, day 20): 75.0±2.3% | Mono. (rats [4]; 50.0 mg/kg, day 20): 1.6±0.3% | Neutro. (rats [4]; 50.0 mg/kg, day 20): 22.1±2.2% | Eosino. (rats [4]; 50.0 mg/kg, day 30): 2.6±0.5% | Lymph. (rats [4]; 50.0 mg/kg, day 30): 78.7±1.8% | Mono. (rats [4]; 50.0 mg/kg, day 30): 1.2±0.2% | Neutro. (rats [4]; 50.0 mg/kg, day 30): 17.5±1.8% | Platelet (rats [4]; 50.0 mg/kg, day 30): 656±36.7 ×10^3 /mm^3 | Eosino. (rats [4]; 100.0 mg/kg, day 10): 2.3±0.5% | Lymph. (rats [4]; 100.0 mg/kg, day 10): 77.1±2.2% | Mono. (rats [4]; 100.0 mg/kg, day 10): 2.3±0.3% | Neutro. (rats [4]; 100.0 mg/kg, day 10): 18.3±2.3% | Platelet (rats [4]; 100.0 mg/kg, day 10): 782±31.2 ×10^3 /mm^3 | Eosino. (rats [4]; 100.0 mg/kg, day 20): 1.2±0.3% | Lymph. (rats [4]; 100.0 mg/kg, day 20): 69.6±3.0% | Mono. (rats [4]; 100.0 mg/kg, day 20): 1.6±0.3% | Neutro. (rats [4]; 100.0 mg/kg, day 20): 27.6±2.9% | Eosino. (rats [4]; 100.0 mg/kg, day 30): 1.4±0.4% | Lymph. (rats [4]; 100.0 mg/kg, day 30): 75.2±1.6% | Mono. (rats [4]; 100.0 mg/kg, day 30): 1.5±0.3% | Neutro. (rats [4]; 100.0 mg/kg, day 30): 21.9±1.9% | Platelet (rats [4]; 100.0 mg/kg, day 30): 696±13.9 ×10^3 /mm^3 | Eosino. (rats [4]; 200.0 mg/kg, day 10, 4 rats): 0.8±0.5% | Lymph. (rats [4]; 200.0 mg/kg, day 10, 4 rats): 36.3±12% | Mono. (rats [4]; 200.0 mg/kg, day 10, 4 rats): 1.3±0.5% | Neutro. (rats [4]; 200.0 mg/kg, day 10, 4 rats): 61.8±12% | Platelet (rats [4]; 200.0 mg/kg, day 10, 4 rats): 592±54.7 ×10^3 /mm^3 | Adrenal Hypertrophy (rats [5]; 25.0 mg/kg): - - - + - | Adrenal Hypertrophy (rats [5]; 50.0 mg/kg): + + ++ + + | Adrenal Hypertrophy (rats [5]; 100.0 mg/kg): + + + + + | Lung Alveolar wall Congestion (rats [5]; 200.0 mg/kg, 5 dead rats): + ++ ++ ++ +++ | Lung Alveolar wall Pneumonia (rats [5]; 200.0 mg/kg, 5 dead rats): ++ ++ ++ + + | Lung Alveolus Pneumonia (rats [5]; 200.0 mg/kg, 5 dead rats): - - - - - | Lung Bronchus Bronchitis (rats [5]; 200.0 mg/kg, 5 dead rats): - - - - - | Pancreas (rats [5]; 200.0 mg/kg, 5 dead rats): - - - - - | Prostate (rats [5]; 200.0 mg/kg, 5 dead rats): - - - - / | Salivary Mucous gl. (rats [5]; 200.0 mg/kg, 5 dead rats): - - - - - | Salivary Serous gl. Atrophy (rats [5]; 200.0 mg/kg, 5 dead rats): - - - - - | Spleen Atrophy (rats [5]; 200.0 mg/kg, 5 dead rats): - - - - - | Spleen Congestion (rats [5]; 200.0 mg/kg, 5 dead rats): ++ ++ ++ + + | Spleen Haemosiderosis (rats [5]; 200.0 mg/kg, 5 dead rats): + + + + + | Stomach (rats [5]; 200.0 mg/kg, 5 dead rats): - - - - - | Testis (rats [5]; 200.0 mg/kg, 5 dead rats): - - - - - | Thyroid (rats [5]; 200.0 mg/kg, 5 dead rats): / - - - / | Thyroid Atrophy (rats [5]; 200.0 mg/kg, 5 dead rats): +++ / +++ / / | Urine bladder (rats [5]; 200.0 mg/kg, 5 dead rats): - - - - - | Bone marrow Hypoplasia (rats [5]; rat, in vivo): - - - - - | Central nerve (rats [5]; rat, in vivo): - - - - - | Heart Endocardium (rats [5]; rat, in vivo): - - - - - | Heart Epicardium (rats [5]; rat, in vivo): - - - - - | Heart Myocardium Focal collapse (rats [5]; rat, in vivo): + - - + - | Heart finding (rats [5]; rat, in vivo): focal collapse of heart muscles | Hypophysis (rats [5]; rat, in vivo): - - - - - | Intestine (rats [5]; rat, in vivo): - - - - - | Kidney (rats [5]; rat, in vivo): - - - - - | Liver Glisson's capsule Cell inf. (rats [5]; rat, in vivo): - + + + + | Liver Kupffer cell Swelling (rats [5]; rat, in vivo): - - + + - | Liver cell Degeneration (rats [5]; rat, in vivo): - - - - - | Liver cell cord Cell inf. (rats [5]; rat, in vivo): - - + - - | Liver cell cord Congestion (rats [5]; rat, in vivo): - - - - - | Liver: Glisson's capsule or liver cell cords; Kupffer cells (rats [5]; rat, in vivo): lymphocytic cell infiltration in Glisson's capsule or liver cell cords, and swelling of Kupffer cells | Lung Alveolar wall Congestion (rats [5]; rat, in vivo): - - - - - | Lung Alveolar wall Pneumonia (rats [5]; rat, in vivo): - - - - - | Lung Alveolus Pneumonia (rats [5]; rat, in vivo): - + - - - | Lung Bronchus Bronchitis (rats [5]; rat, in vivo): - - - - + | Lymph node (rats [5]; rat, in vivo): - - - - - | Pancreas (rats [5]; rat, in vivo): - - - - - | Prostate (rats [5]; rat, in vivo): - - - - - | Salivary Mucous gl. (rats [5]; rat, in vivo): - - - - - | Salivary Serous gl. Atrophy (rats [5]; rat, in vivo): - - - - - | Spleen Atrophy (rats [5]; rat, in vivo): - - - - - | Spleen Congestion (rats [5]; rat, in vivo): - - - - - | Spleen Haemosiderosis (rats [5]; rat, in vivo): + + + + + | Stomach (rats [5]; rat, in vivo): - - - - - | Testis (rats [5]; rat, in vivo): - - - - - | Thymus Atrophy (rats [5]; rat, in vivo): - - - - - | Thyroid (rats [5]; rat, in vivo): - - - - - | Urine bladder (rats [5]; rat, in vivo): - - - - - | kidney histopathology (rats [5]; rat, in vivo): no pathological change | other organs (rats [5]; rat, in vivo): No other pathological change | pathological change of adrenal (rats [5]; rat, in vivo): reversible hypertrophy of cortex | stomach mucous (rats [5]; rat, in vivo): no pathological change of stomach mucous | inhibitory action of central nervous system (central nervous system [6]): less than that of RSP | solubility in chloroform (Solubility): easily soluble | solubility in ethanol (Solubility): easily soluble | solubility in methanol (Solubility): easily soluble | solubility in water (Solubility): hardly soluble
